Test results taken from publication PMC9234961 (Journal of Medicinal Chemistry, 2022).
pIC50: −log10 of the molar value. Values after ≈ are worked out from the molar mass of the structure shown. Values joined by “and” are separate entries in the source; they are usually repeats but may differ in a detail not shown here. Equal values may be shown once. Read-outs that look alike come from different tables or passages of the source.

Tests used:
[1] = Microsomal clearance assay (MLM); type: in vitro ADME; conditions: female, CD1, pH 7.4; mouse liver microsomes, 1 μM compound
Procedure: 6. Supplementary experimental: in vitro DMPK assays
6.1 Microsomal clearance assay
Microsomal clearance was determined in female CD1 mice, female Sprague–Dawley rats, and mixed gender human liver microsomes obtained from BioIVT (Peterborough, U.K.) following incubation of 1 μM compound at 37 °C in 0.5 mg/mL microsomal protein, 3 mmol/L MgCl2, 1 mmol/L NADPH, 2.5 mmol/L and 10 mmol/L phosphate buffer (pH 7.4) (all purchased from Sigma-Aldrich, Gillingham, U.K). Reactions were started by addition of the cofactors following 10 min preincubation of microsomes with test compound and were terminated at −1, 0, 5, 10, 15, and 30 min with three volumes of ice-cold methanol containing internal standard. Samples were centrifuged at 2800g for 30 min at 4 °C and the supernatants analyzed.
Control incubations were prepared as above with omission of cofactors. Compound measurements were […]
separation with a 3 min gradient of 0.1% formic acid in methanol on a Kinetex C18, 50 × 2.1 mm 2.6 μm UPLC column (Phenomenex, Macclesfield, UK). […]

human BCL6 BTB domain [2] = biological target: T1, human BCL6 BTB domain (Homo sapiens, UniProt P41182); conditions: for BCL6 TR-FRET pIC50 mean: mean of replicates
Procedure: (§1) Assays were performed in a 384-well black Proxiplate (Perkin Elmer) containing 1 nM Trx-6xHis-BCL6 (in
(§2) anti-6xHis-Terbium cryptate (CisBio Bioassays, France), in assay buffer (25 mM Hepes pH8, 100 mM NaCl,
(§3) 0.05% Tween20, 0.5 mM TCEP, 0.05% bovine serum albumin). Test compounds in DMSO or DMSO alone
(§4) were added to the wells using an ECHO550 acoustic dispenser (Labcyte Inc) to give the appropriate test
(§5) concentration in 0.7% v/v DMSO final. After 2 hours incubation at room temperature the plate was read
(§6) The % inhibition at each concentration was calculated by normalising FRET ratio to the
(§7) appropriate high (DMSO with all reagents) and low (DMSO without BCL6) controls. IC50 values were
(§8) determined using GraphPad Prism 6.0 or Dotmatics (Bishops Stortford, UK) software by fitting the
(§9) normalised data to a sigmoidal four-parameter logistic fit equation.

[3] = biological target: endogenous BCL6 in OCI-Ly1 cells (Homo sapiens, UniProt P41182); experiment: cell-based; conditions: for degradation of BCL6 (in words): OCI-Ly1 MSD assay; for MSD degrader assay [OCI-Ly1] Dmax: mean maximal degradation of BCL6; for MSD degrader assay [OCI-LY1] pDC50 mean: mean of replicates
NMR solubility assay = type: physicochemical; conditions: kinetic solubility by NMR in HEPES buffer at pH 8, 4% DMSO; read-out: Aq. Sol.
Procedure: 4. Supplementary experimental: physicochemical assays
0.5 mM TCEP, 10% D2O) was pipetted into the same well and mixed by up-down pipetting 3 times to create […]
It was then separated by centrifugation (1000 rpm
The plate was then sealed and incubated at room temperature for 20 hours, […]
165 µL of the supernatant was transferred to a 3 mm NMR tube (Bruker, Part No. Z112272) using liquid handler SamplePro Tube SJ S (Bruker). The concentration of the solubilized compound in solubility sample is measured by quantitative 1H-NMR using a single external standard (200 µM caffeine (Sigma, C1778) in PBS (pH 7.4) with 1% DMSO-d6).
The detail of the NMR method is as following: NMR data was collected on a Bruker Avance Neo 600 spectrometer equipped with a 5 mm TCI-CryoProbe. The 1H spectrum was referenced to the internal deuterated solvent. The operating frequency for 1H was 600 MHz. All NMR data were acquired at the […]
1H-NMR spectrum was acquired using a Bruker standard 1D lc1pngppsf2 pulse sequence with 32 scans.
The sweep width was 6.2 ppm with O1P set to 8.8 ppm, and the FID contained 16k time-domain data points. Relaxation delay was set to 20 sec. Water signal was suppressed. […]

human BCL6 BTB domain [4] = biological target: T1, human BCL6 BTB domain; experiment: biochemical
Procedure: as §1, §2, §3, §4, §5, §6, §7, §8, §9

[5] = logD7.4 assay (Chrom log D method); type: physicochemical; conditions: reversed-phase HPLC on Phenomenex Luna C8 column, pH 7.4, read-out: Measured logD7.4
Procedure: Calibration, validation and in-house compounds were prepared at 1mM in 10% DMSO / 90% Trizma solution (100mM Trizma in 75/25 methanol/water). 3 µL standard injections (with needle wash) of all calibration, validation and in-house samples were made onto a Phenomenex Luna C8 column (3µm, 100 x 4.6 mm, 100A, Phenomenex, Torrence, USA). Chromatographic separation at 30°C was carried out using […]
2 mL/min. The gradient was held at 0:100 water:organic for 0.8 minutes, then returned to the starting conditions of 95:5 water:organic for 0.2 minutes. The column was re-equilibrated for 5 minutes at the […]

[6] = read-out: BCL6 TR-FRET IC50, geometric mean, BCOR-AF633 peptide, 2 h incubation
[7] = OCI-Ly1, read-out: MSD degrader assay [OCI-LY1] Dmax individual replicates, single replicate values
[8] = OCI-Ly1, read-out: MSD degrader assay [OCI-Ly1] Dmax, mean maximal degradation of BCL6, OCI-Ly1 cells, 2 h
[9] = read-out: MSD degrader assay [OCI-LY1] DC50 individual replicates, single replicate values
[10] = read-out: MSD degrader assay [OCI-Ly1] DC50, geometric mean, OCI-Ly1 cells, 2 h incubation
[11] = BCL6 TR-FRET IC50 individual replicates, single replicate values
[12] = read-out: BCL6 TR-FRET IC50 individual replicates, single replicate values

Row | Compound | microsomal CLint at 0.5 h, 1 µM [1] [µL/min/mg] | BCL6 TR-FRET pIC50 mean (human BCL6 BTB domain [2]) | pIC50 (human BCL6 BTB domain [2]; [6]) | Dmax [3, 7] [%] | Dmax [3, 8] [%] | degradation of BCL6 (in words) [3] | MSD degrader assay [OCI-Ly1] Dmax ([3]; OCI-Ly1 cells, 2 h) [%] | MSD degrader assay [OCI-LY1] pDC50 mean [3] | DC50 [3, 9] | DC50 [3, 10] [nM] | MSD degrader assay [OCI-LY1] Dmax individual replicates ([3]; single replicate values) | solubility kinetic at 20 h (NMR solubility assay) [µM] | pIC50 (human BCL6 BTB domain [4]; [11]) | chromatographic logD [5] | pIC50 (human BCL6 BTB domain [2]; [12]) | pIC50 (human BCL6 BTB domain [4]; BCL6 TR-FRET IC50, geometric mean, BCOR-AF633 peptide, 2 h incubation) | IC50 (human BCL6 BTB domain [4]; [11]) | pIC50 (human BCL6 BTB domain [4]; BCL6 TR-FRET pIC50 mean, mean of replicates)
1 | Cn1c(=O)c2c(c3cc(Nc4nc(N5CCC(F)(F)[C@@H](O)C5)ncc4Cl)ccc31)N[C@@H](C1CC1)C(F)(F)CO2 (single isomer, unassigned) [8a] | 53 | 8.4571 | 8.46 | 60.5 | 59.6 | potently degrading isomer | 60 | 8.1499 | 4.3 nM and 11.6 nM and 7.1 nM | 7.1 | 50.7% and 67.5% | 11 (≈ 6.26 µg/mL) | 8.49 and 8.48 and 8.40 | 3 | – | – | – | –
2 | Cn1c(=O)c2c(c3cc(Nc4nc(N5CCC(F)(F)[C@H](O)C5)ncc4Cl)ccc31)N[C@@H](C1CC1)C(F)(F)CO2 (single isomer, unassigned) [8b] | 22 | 8.3342 | 8.34 | < 30 | < 30 | nondegrading isomer | > 30 | – | > 2000 nM | > 2000 | – | 13 (≈ 7.4 µg/mL) | – | 3 | 8.32 and 8.33 and 8.36 | – | – | –
3 | Cn1c(=O)c2c(c3cc(Nc4nc(N5CCC(F)(F)[C@H](CO)C5)ncc4Cl)ccc31)N[C@@H](C1CC1)C(F)(F)CO2 [9b, (S)-10-((5-Chloro-2-((S)-4,4-difluoro-3-(hydroxymethyl)piperidin-1-yl)pyrimidin-4-yl)amino)-2-cyclopropyl-3,3-difluoro-7-methyl-1,2,3,4-tetrahydro-[1,4]oxazepino[2,3-c]quinolin-6(7H)-one] | 129 | 8.3907 | 8.39 | – | 44.7 | partial degradation | ~45 | – | > 2000 nM | > 2000 | 56.1% and 58.2% and 19.9% | 6.8 (≈ 3.96 µg/mL) | 8.47 and 8.42 and 8.30 | 3.2 | 8.38 | – | – | –
4 | CC(=O)N[C@@H]1C[C@H](C)CN(c2ncc(Cl)c(Nc3ccc4c(c3)c3c(c(=O)n4C)OCC(F)(F)[C@H](C4CC4)N3)n2)C1 [10a, N-((3R,5S)-1-(5-Chloro-4-(((S)-2-cyclopropyl-3,3-difluoro-7-methyl-6-oxo-1,2,3,4,6,7-hexahydro-[1,4]oxazepino[2,3-c]quinolin-10-yl)amino)pyrimidin-2-yl)-5-methylpiperidin-3-yl)acetamide] | 138 | 8.4394 | 8.44 | 72.4 | – | potently degrading isomer | 67 | 8.6565 | 1.7 nM and 2.8 nM | 2.2 | 61.63% | 15 (≈ 8.82 µg/mL) | 8.47 and 8.36 and 8.49 | 2.8 | – | – | – | –
5 | C[C@@H]1C[C@@H](O)CN(c2ncc(Cl)c(Nc3ccc4c(c3)c3c(c(=O)n4C)OCC(F)(F)[C@H](C4CC4)N3)n2)C1 [13a, (S)-10-((5-Chloro-2-((3R,5R)-3-hydroxy-5-methylpiperidin-1-yl)pyrimidin-4-yl)amino)-2-cyclopropyl-3,3-difluoro-7-methyl-1,2,3,4-tetrahydro-[1,4]oxazepino[2,3-c]quinolin-6(7H)-one] | 78 | 8.0053 | 8.00 | < 30 | < 30 | nondegraders of BCL6 | > 30 | – | > 2000 nM | > 2000 | – | – | 7.94 and 8.07 | 3 | 8.00 | – | – | –
6 | C[C@H]1C[C@H](O)CN(c2ncc(Cl)c(Nc3ccc4c(c3)c3c(c(=O)n4C)OCC(F)(F)[C@H](C4CC4)N3)n2)C1 [13b, (S)-10-((5-Chloro-2-((3S,5S)-3-hydroxy-5-methylpiperidin-1-yl)pyrimidin-4-yl)amino)-2-cyclopropyl-3,3-difluoro-7-methyl-1,2,3,4-tetrahydro-[1,4]oxazepino[2,3-c]quinolin-6(7H)-one] | 446 | 8.2236 | 8.22 | < 30 | < 30 | nondegraders of BCL6 | > 30 | – | > 2000 nM | > 2000 | – | – | 8.31 and 8.19 and 8.17 | 3.1 | – | – | – | –
7 | Cn1c(=O)c2c(c3cc(Nc4nc(N5CCC[C@H](O)C5)ncc4Cl)ccc31)N[C@@H](C1CC1)C(F)(F)CO2 [14b, (S)-10-((5-chloro-2-((S)-3-hydroxypiperidin-1-yl)pyrimidin-4-yl)amino)-2-cyclopropyl-3,3-difluoro-7-methyl-1,2,3,4-tetrahydro-[1,4]oxazepino[2,3-c]quinolin-6(7H)-one] | 139 | – | 8.60 | < 30 | < 30 | none was seen | > 30 | – | > 2000 nM | > 2000 | – | 23 (≈ 12.3 µg/mL) | – | – | 8.59 | 8.52 | 3.1 nM (2×) and 3.2 nM and 2.9 nM | 8.53
8 | Cn1c(=O)n(CCC(C)(C)O)c2cc(Nc3nc(N4CCC(F)(F)C(O)C4)ncc3Cl)ccc21 (stereo not shown) [compound 3, 5-((5-Chloro-2-(4,4-difluoro-3-hydroxypiperidin-1-yl)pyrimidin-4-yl)amino)-3-(3-hydroxy-3-methylbutyl)-1-methyl-1,3-dihydro-2H-benzo[d]imidazol-2-one] | 35 | 6.6241 | 6.62 | 81 | 77.5 | – | 78 | 6.5593 | 246 nM and 310 nM | 276 | 74.1% | 11 (≈ 5.47 µg/mL) | – | 2.3 | 6.64 and 6.61 and 6.62 | – | – | –
9 | Cn1c(=O)n(CCC(C)(C)O)c2cc(Nc3nc(N4CCC(F)(F)C(CO)C4)ncc3Cl)ccc21 (stereo not shown) [compound 4, 5-((5-Chloro-2-(4,4-difluoro-3-(hydroxymethyl)piperidin-1-yl)pyrimidin-4-yl)amino)-3-(3-hydroxy-3-methylbutyl)-1-methyl-1,3-dihydro-2H-benzo[d]imidazol-2-one] | – | – | – | – | – | – | – | – | – | – | – | 294 (≈ 150 µg/mL) | – | 2.5 | – | – | – | –
